Measurements from patent publication US9255257B2, “PmST1 mutants for chemoenzymatic synthesis of sialyl lewis X compounds” (THE REGENTS OF THE UNIVERSITY OF CALIFORNIA, priority 2011, dated 2016).

What was measured:
[1] = target: Pasteurella multocida α2-3-sialyltransferase 1 (PmST1), wild type (WT), SEQ ID NO: 13 (Pasteurella multocida, UniProt Q15KI8); details: apparent, α2-3-sialidase; cited from earlier work
[2] = target: Pasteurella multocida PmST1 mutant M144D of SEQ ID NO: 13 (M120D of Δ24PmST1, SEQ ID NO: 3) (Pasteurella multocida, UniProt Q15KI8, M144D); experiment: α2-3-sialidase activity, Neu5Acα2-3LacβMU as substrate; type: biochemical; details: apparent, MES pH 5.5, 37° C., 60 min
Protocol: (§1) Site-directed mutagenesis, expression and purification of PmST1 mutants. Site-directed mutagenesis was performed using the QuikChange multi-site-directed mutagenesis kit from Stratagene according to the manufacturer's protocol. The primers used were 5′-[…]-3′ (SEQ ID NO:35) for M144D; 5′-[…]a[…] -3′ (SEQ ID NO:36) for M144H; 5′-[…]-3′ (SEQ ID NO:37) for A35D; and 5′-[…]-3′ (SEQ ID NO:38) for A35H. The expression and purification of the mutants were performed as previously described for the WT PmST1 .
(§2) Kinetics of the α2-3-sialidase activity of PmST1 mutants. The reactions were performed in duplicate in a total volume of 10 μL at 37° C. for 60 min (M144D) or 15 min (M144H) in MES buffer (100 mM, pH 5.5) containing Neu5Acα2-3LacβMU (0.4, 1, 2, 4, 10, 20, 40 and 60 mM) and an enzyme (M144H, 1.36 mg mL^−1 or M144D, 1.05 mg mL^−1). Sample treatment after the reaction and analysis were carried out by HPLC similar to that described above for the α2-3-sialyltransferase assays.

[3] = target: Pasteurella multocida PmST1 mutant M144H of SEQ ID NO: 13 (M120H of Δ24PmST1, SEQ ID NO: 5) (Pasteurella multocida, UniProt Q15KI8, M144H); experiment: as above; type: biochemical; details: apparent, MES pH 5.5, 37° C., 15 min
Protocol: as §1, §2

[4] = target: Pasteurella multocida PmST1 mutant R313Y of SEQ ID NO: 13 (R289Y of Δ24PmST1, SEQ ID NO: 9) (Pasteurella multocida, UniProt Q15KI8, R313Y); experiment: as above; type: biochemical; details: apparent, MES pH 5.5, 37° C., 25 min
Protocol: (§3) Site-directed mutagenesis. Site-directed mutagenesis was carried out using the QuikChange multi-site-directed mutagenesis kit from Stratagene according to the manufacturer's protocol. The primers used were 5′-[…] -3′ (SEQ ID NO:32) for E271F and 5′-[…]-3′ (SEQ ID NO:33) for R313Y. The sites of mutations are underlined.
(§4) Protein Expression and Purification. The plasmids containing the mutant genes were transformed into E. coli BL21 (DE3). The E. coli cells were cultured in LB-rich media (10 g L^−1 tryptone, 5 g L^−1 yeast extract, and 10 g L^−1 NaCl) supplemented with ampicillin (100 μg mL^−1). Overexpression of the mutant proteins was achieved by adding 0.1 mM of isopropyl-1-thio-β-D-galactopyranoside (IPTG) to the E. coli culture when its OD600 nm reached 0.8. The incubation of the induced culture was performed at 37° C. for 3 h with vigorous shaking at 250 rpm in a C25KC incubator shaker (New Brunswick Scientific, Edison, N.J.).
(§5) His6 (SEQ ID NO:34) tagged mutant proteins were purified from the cell lysate. To obtain the cell lysate, the cell pellet harvested by centrifugation at 4000 rpm for 2 h was resuspended in 20 mL (for cells obtained from one liter culture) of lysis buffer (pH 8.0, 100 mM Tris-HCl containing 0.1% Triton X-100). To lyse the cells, lysozyme (50 μg mL^−1) and DNaseI (3 μg mL^−1) were then added to the resuspended cells followed by shaking at 37° C. for 60 min. The cell lysate was obtained as the supernatant after centrifugation at 11,000 rpm for 20 min. […]
(§6) All the sialidase and α2-3-sialyltransferase assays were performed in an HPLC system. […] After necessary dilutions were performed to adjust the concentrations of the fluorescent-labeled compounds, the samples were then kept on ice until aliquots of 8 μL were injected and analyzed by a Shimadzu LC-6AD system equipped with a membrane on-line degasser, a temperature control unit, and a fluorescence detector (Shimadzu RF-10AXL). […] The fluorescent compounds LacβMU and Neu5Acα2-3LacβMU were detected by excitation at 325 nm and emission at 372 nm.

[5] = target: Pasteurella multocida PmST1 double mutant E271F/R313Y of SEQ ID NO: 13 (E247F/R289Y of Δ24PmST1, SEQ ID NO: 11) (Pasteurella multocida, UniProt Q15KI8, E271F/R313Y); experiment: as above; type: biochemical; details: apparent, MES pH 5.5, 37° C., 20 min
Protocol: as §3, §4, §5, §6

[6] = target: Pasteurella multocida PmST1 mutant E271F of SEQ ID NO: 13 (E247F of Δ24PmST1, SEQ ID NO: 7) (Pasteurella multocida, UniProt Q15KI8, E271F); experiment: as above; type: biochemical; details: apparent, MES pH 5.5, 37° C., 1 min
Protocol: as §3, §4, §5, §6

[7] = target: Pasteurella multocida PmST1 mutant H311A (Pasteurella multocida, UniProt Q15KI8, H311A); experiment: as above; type: biochemical; parameters: previously obtained mutant (Ni et al. 2006); details: result in words
Protocol: (§7) Kinetic Assays. […] The apparent kinetic parameters were obtained by fitting the experimental data (the average values of duplicate assay results) into the Michaelis-Menten equation using Grafit 5.0.
(§8) All the sialidase and α2-3-sialyltransferase assays were performed in an HPLC system. Reactions were stopped by adding 10 μL of ethanol. After necessary dilutions were performed to adjust the concentrations of the fluorescent-labeled compounds, the samples were then kept on ice until aliquots of 8 μL were injected and analyzed by a Shimadzu LC-6AD system equipped with a membrane on-line degasser, a temperature control unit, and a fluorescence detector (Shimadzu RF-10AXL). A reverse-phase Premier C18 column (250×4.6 mm i.d., 5 μm particle size, Shimadzu) protected with a C18 guard column cartridge was used. The mobile phase was 25% acetonitrile. The fluorescent compounds LacβMU and Neu5Acα2-3LacβMU were detected by excitation at 325 nm and emission at 372 nm.

[8] = target: Pasteurella multocida PmST1 mutant D141A (Pasteurella multocida, UniProt Q15KI8, D141A); experiment: as above; type: biochemical; parameters: previously obtained mutant (Ni et al. 2006); details: apparent, MES pH 5.5, 37° C., 60 min
Protocol: as §7, §8

For CC(=O)N[C@H]1[C@H]([C@H](O)[C@H](O)CO)O[C@@](O[C@H]2[C@@H](O)[C@@H](CO)O[C@@H](O[C@H]3[C@H](O)[C@@H](O)[C@H](Oc4ccc5c(C)cc(=O)oc5c4)O[C@@H]3CO)[C@@H]2O)(C(=O)O)C[C@@H]1O [Neu5Acα2-3LacβMU], the Km [1] is listed as 24 mM, the kcat [2] is listed as “(3.5 ± 0.1) × 10^−2 s^−1” and the kcat [3] is listed as “(2.7 ± 0.2) × 10^−2 s^−1”. For the same compound, the kcat [4] was 0.18 ± 0.01 s⁻¹, the kcat [5] was 0.83 ± 0.08 s⁻¹ and the kcat [6] was 0.92 ± 0.04 s⁻¹. For the same compound, the “kinetics of the α2-3-sialidase activity” value [7] was “too low to obtain the kinetic data” and the kcat [8] was “(1.9 ± 0.1) × 10^−2 s^−1”.
